Measured values: patent US7977481B2, “Pyrimidinyl-thiophene kinase modulators” (SGX Pharmaceuticals, Inc., priority 2005, dated 2011)

What follows are compounds tested against T1, Autophosphorylated AurA kinase (Homo sapiens, UniProt O14965) (assay: AurA Luminescence-Based ATP Depletion Enzyme Assay). Details: 10 μM ATP.
T1 construct: made in house; host or cells: Sf9 insect cells
T1 sequence (O14965 1-403): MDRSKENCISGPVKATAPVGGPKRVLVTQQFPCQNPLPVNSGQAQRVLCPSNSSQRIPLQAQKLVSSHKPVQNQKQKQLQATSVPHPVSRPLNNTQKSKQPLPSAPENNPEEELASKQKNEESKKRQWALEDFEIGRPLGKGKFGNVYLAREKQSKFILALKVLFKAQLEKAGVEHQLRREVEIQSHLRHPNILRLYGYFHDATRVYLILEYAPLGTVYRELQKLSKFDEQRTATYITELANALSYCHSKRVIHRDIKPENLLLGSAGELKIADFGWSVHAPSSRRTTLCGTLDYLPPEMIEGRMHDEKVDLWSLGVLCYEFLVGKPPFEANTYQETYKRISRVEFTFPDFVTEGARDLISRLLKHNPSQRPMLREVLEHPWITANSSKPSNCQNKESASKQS
Format: biochemical
Procedure: AurA Luminescence-Based ATP Depletion Enzyme Assay
Materials: Kemptide peptide substrate=LRRASLG (Biopeptide, San Diego, Calif.), ATP (Sigma Cat#A-3377, FW=551), HEPES buffer, pH 7.5, 10% Brij 35 (Calbiochem Cat#203728), MgCl2, Staurosporine (Streptomyces sp. Sigma Cat#85660-1MG), white Costar 384-well flat-bottom plate (VWR Cat#29444-088), Autophosphorylated AurA kinase (see below), Kinase-Glo™ (Promega Cat#V6712).
Stock Solutions: 10 mM Kemptide peptide (7.72 mg/ml in water), stored at −20° C.; 100 mM HEPES buffer+0.015% Brij 35, pH 7.5 (5 ml 1M HEPES stock+75 μL 10% Brij 35+45 ml miliQH2O); 10 mM ATP (5.51 mg/ml in dH2O) stored at −20° C. (diluted 50 μl into total of 10 ml miliQH2O daily=50 μM ATP working stock); 100 mM MgCl2; 200 μM Staurosporine, 2× Kinase-Glo™ reagent (made fresh or stored at −20° C.).
AurA Autophosphorylation Reaction: ATP and MgCl2 were added to 1-5 mg/ml AurA at final concentrations of 10 mM and 100 mM, respectively. The autophosphorylation reaction was incubated at 21° C. for 2-3 h. The reaction was stopped by the addition of EDTA to a final concentration of 50 mM, and samples were flash frozen with liquid N2 and stored at −80° C.
Standard Assay Setup for 384-well format (20 μl kinase reaction, 40 μl detection reaction): 10 mM MgCl2; 0.2 mM Kemptide peptide; 1 μl test compound (in DMSO); 0.3 μg/ml Autophosphorylated AurA kinase; 10 μM ATP; 100 mM HEPES+0.015% Brij buffer. Positive controls contained DMSO with no test compound. Negative controls contained 5 μM staurosporine. The kinase reactions were initiated at time t=0 by the addition of ATP. Kinase reactions were incubated at 21° C. for 45 min, then 20 μl of Kinase-Glo™ reagent were added to each well to quench the kinase reaction and initiate the luminescence reaction. After a 20 min incubation at 21° C., the luminescence was detected in a plate-reading luminometer.
The Sf9 insect cell pellets (˜18 g) produced from 6 L of cultured cells expressing human Aurora-2 were resuspended in 50 mM Na Phosphate pH 8.0, 500 mM NaCl, 10% glycerol, 0.2% n-octyl-β-D-glucopyranoside (BOG) and 3 mM β-Mercaptoethanol (BME). One tablet of Roche Complete, EDTA-free protease inhibitor cocktail (Cat#1873580) and 85 units Benzonase (Novagen Cat#70746-3)) were added per 1 L of original culture. Pellets were resuspended in approximately 50 ml per 1 L of original culture and were then sonicated on ice with two 30-45 sec bursts (100% duty cycle). Debris was removed by centrifugation and the supernatant was passed through a 0.8 μm syringe filter before being loaded onto a 5 ml Ni^2+ HiTrap column (Pharmacia). The column was washed with 6 column volumes of 50 mM Na Phosphate pH 8.0, 500 mM NaCl, 10% glycerol, 3 mM BME. The protein was eluted using a linear gradient of the same buffer containing 500 mM Imidazole. The eluant (24 ml) was cleaved overnight at 4° C. in a buffer containing 50 mM Na Phosphate pH 8.0, 500 mM NaCl, 10% glycerol, 3 mM BME and 10,000 units of TEV (Invitrogen Cat#10127-017). The protein was passed over a second nickel affinity column as described above; the flow-through was collected. The cleaved protein fractions were combined and concentrated using spin concentrators. Further purification was done by gel filtration chromatography on a S75 sizing column in 50 mM Na Phosphate (pH 8.0), 250 mM NaCl, 1 mM EDTA, 0.1 mM AMP-PNP or ATP buffer, and 5 mM DTT. The cleanest fractions were combined and concentrated to approximately 8-11 mg/ml, and were either flash frozen in liquid nitrogen in 120 μl aliquots and stored at −80° C., or stored at 4° C.
`OC1CCN(Cc2cccc(Nc3nccc(-c4ccc(CNc5ccccc5Cl)s4)n3)c2)CC1` showed an IC50 greater than 0.5 µM.
For `CCN(CCC#N)C(=O)c1ccc(-c2ccnc(Nc3cccc(C(C)O)c3)n2)s1` (stereo not shown), the IC50 was 0.1 to 0.5 µM.
`C[C@@H](NC(=O)c1ccc(-c2ccnc(Nc3cccc(CN4CCN(CCO)CC4)c3)n2)s1)c1ccccc1` showed an IC50 of less than 0.1 µM.
Work on `CC(O)c1cccc(Nc2nccc(-c3ccc(S(=O)(=O)Cc4ccccc4)s3)n2)c1` (stereo not shown) yielded an IC50 of 0.1 to 0.5 µM.
For `COc1ccc(Nc2nccc(-c3ccc(Br)s3)n2)cc1C(=O)N(C)C`, the IC50 was 0.1 to 0.5 µM.
`C[C@@H](NC(=O)c1ccc(-c2ccnc(Nc3cccc(CN4CCC(O)CC4)c3)n2)s1)c1ccccc1` was tested, and the IC50 was less than 0.1 µM.
`CN(C)C1CCN(c2cccc(Nc3nccc(-c4ccc(C(=O)NCc5ccco5)s4)n3)c2)C1` (stereo not shown) gave an IC50 of 0.1 to 0.5 µM.
Work on `CC(O)c1cccc(Nc2nccc(-c3ccc(-c4cccnc4)s3)n2)c1` (stereo not shown) yielded an IC50 of 0.1 to 0.5 µM.
For `CC(O)c1cccc(Nc2nccc(-c3ccc(-c4ccncc4)s3)n2)c1` (stereo not shown), the IC50 was greater than 0.5 µM.
`O=C(NCc1ccccc1)c1ccc(-c2ccnc(Nc3ccc(CCO)cc3)n2)s1` gave an IC50 of less than 0.1 µM.
`CCC1CCCCN1S(=O)(=O)c1ccc(-c2ccnc(Nc3cccc(C(C)O)c3)n2)s1` (stereo not shown) showed an IC50 of 0.1 to 0.5 µM.
For `Brc1ccc(-c2ccnc(Nc3cccc(CN4CCOCC4)c3)n2)s1`, the IC50 was greater than 0.5 µM.
In the case of `CNC(=O)c1ccc(-c2ccc(-c3ccnc(Nc4cccc(C(C)O)c4)n3)s2)cc1` (stereo not shown), the IC50 is reported as 0.1 to 0.5 µM.
`CCN(CCC#N)S(=O)(=O)c1ccc(-c2ccnc(Nc3cccc(C)c3)n2)s1` was tested, and the IC50 was less than 0.1 µM.
`CCC(=O)Nc1ccc(-c2ccnc(Nc3cccc(C)c3)n2)s1` was tested, and the IC50 was 0.1 to 0.5 µM.
In the case of `O=C(c1cccc(Nc2nccc(-c3ccc(Br)s3)n2)c1)N1CCN(CCO)CC1`, the IC50 is reported as 0.1 to 0.5 µM.
`CC(O)c1cccc(Nc2nccc(-c3ccc(S(=O)(=O)N(C)C)s3)n2)c1` (stereo not shown) showed an IC50 of less than 0.1 µM.
`CN(Cc1ccccc1)C(=O)c1ccc(-c2ccnc(Nc3ccc(CCO)cc3)n2)s1` gave an IC50 of less than 0.1 µM.
For `CCN(CCC#N)S(=O)(=O)c1ccc(-c2ccnc(Nc3cccc(C(C)O)c3)n2)s1` (stereo not shown), the IC50 was less than 0.1 µM.
`CC(O)c1cccc(Nc2nccc(-c3ccc(-c4cccc(CC#N)c4)s3)n2)c1` (stereo not shown) gave an IC50 of 0.1 to 0.5 µM.
In the case of `CN(C)C(=O)c1cccc(Nc2nccc(-c3ccc(Br)s3)n2)c1`, the IC50 is reported as 0.1 to 0.5 µM.
Work on `COc1ccc(Nc2nccc(-c3ccc(Br)s3)n2)cc1OC` yielded an IC50 of less than 0.1 µM.
